Reference: patent US6147068A, “Lipophilic polyamine esters for the site specific delivery of nitric oxide in pharmaceutical use” (The University of Akron, priority 1998, dated 2000)

Assay: Nitric oxide release profile of NONOates (nitric oxide analyzer)
Format: physicochemical
Protocol: Using a Monitor Labs Model 8440 Nitric Oxide Analyzer, interfaced with an HP 3396 A Chromatography Integrator, the nitric oxide release from the above synthesized NONOates was measured. […] Teflon® flow meters were inserted at the beginning of the circuit just before entry into the analyzer, and a helium tank with regulator was connected to the first flow meter.
The release profile was performed by adding about 3 to about 8 mg of the NO donor molecules prepared above to 25 ml of phosphate-buffered saline (PBS) (pH 7.4) in an impinger bottle that was subjected to continuous stirring. Varying amounts of the lung surfactant Survanta was added to certain samples, as were the surfactants Tween® 20 and Tween® 80. Tween® is available from Fisher Scientific Company, Fair Lawn, N.J. Still in other examples, the NONOates were simply dissolved in THF. Although the NONOates are insoluble in aqueous solution, sonication pulverized the compound adequately to produce fine particles that increased the surface area of the compound allowing a suspension to form. Once the impinger bottle was assembled, it was held in a water sonicator bath and sonicated until the insoluble sample was pulverized into fine particles or an emulsion. The amount of liberated NO was determined by the daily or timely flushing of helium through the solution and into the analyzer. Typically, measurements were taken every 2-4 hours during the first 18 hours and then every 12 hours thereafter. Eventually, readings only needed to be taken every 24 hours as the end of the release profile was approached. Helium gas was flushed through the system at 12 psig and the first flow meter was set to 150 ml/min. The second flow meter was adjusted to allow maximum flow. The released data was then used to compile the release profiles represented in FIGS. 3-10. The release profiles as represented in FIGS. 3-10 depict NO release from the NONOates in nmol NO/mg NONOate versus time in hours.
Based on these release profiles, the half-life and % Release for each NONOate prepared above was calculated and is represented in Table I, which represents NO release in PBS at pH 7.4.

Row | Molecule | half-life (1% survanta, half-life (NO release)) [h] | half-life (5% & 10% survanta, half-life (NO release)) [h] | half-life (5% tween 20, half-life (NO release)) [h] | half-life (10% tween 20, half-life (NO release)) [h] | half-life (NO release) (pbs, pH 7.4) | half-life (pbs, pH 7.4, half-life (NO release)) [h] | half-life (thf, pH 1, half-life (NO release)) [h] | % Release (NO) (PBS, pH 7.4)
1 | CC(C)CCC[C@@H](C)[C@H]1CC[C@H]2[C@@H]3CC=C4C[C@@H](OC(=O)CCN(CCCCN)[N+]([O-])=NO)CC[C@]4(C)[C@H]3CC[C@]12C [CPNO, Cholesterylputreanine-NONOate] | 62 | 39 | 104 | 72 | about 60 hr | 60 | 21 | –
2 | Dihexadecanylspermate-NONOate [DiHSNO] | – | – | – | – | – | – | – | about 7.4%
